Earlier results in article PMC4078388 (EJNMMI Research, 2014).

Test system: INS-1 tumour
Details: Balb/c nude mice, 1 h after injection
Text: One additional challenge when imaging β-cells is the limited amount of overall GLP-1 receptors available which requires the administration of low amounts of peptide with a high specific activity in order to avoid receptor blocking [[13]]. One potential way to further increase the specific activity and therefore reduce the amount of tracer necessary to obtain a clear image is to attach several chelators to the peptide allowing more radioactivity per molecule.

For [Lys^40(^68Ga-DOTA)]exendin-3, the “uptake in INS-1 tumour” value is listed as 8.9 ± 3.1 %iA/g and the “uptake in the pancreas” value is listed as 6.7 ± 1.8 %iA/g.
